# The source made the active and inactive calls.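 Rule for the calls: active = AC50, the dose giving half-maximal effect, exceeds a fixed cutoff for a compound that rescues yeast growth under heat; inactive = the rest, inconclusive results apart.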
# Tested on: S. cerevisiae Burl-1 ts mutant growth, BacTiter-Glo, 38.5C 24 h
# Experiment: growth induction of Burl-1 ts yeast mutant, dose response, counter-screen for SUMOylation pathway inhibitor project, whole organism, S. cerevisiae, luminescence (AID 463199)
row,Structure (SMILES),AC50
1,O=C(c1ccco1)N1CCN(C(=O)C2Cc3ccccc3CN2S(=O)(=O)c2ccc(F)cc2)CC1 (centres undefined),> 42 µM (inactive)
2,Cc1n[nH]c(=O)c2c(NC(=O)COC(=O)Cc3ccc(Cl)cc3Cl)oc(C)c12,> 21 µM (inactive)
3,CCCNC(=O)CN(c1ccc(F)cc1)S(=O)(=O)c1ccc2c(c1)OCCO2,> 42 µM (inactive)
4,Cc1cccc(OCc2nnc(SCC(=O)N3c4ccccc4CC3C)n2C)c1C (centres undefined),> 42 µM (inactive)
5,Cc1ccc(C(=O)N/C(=C\c2cccs2)C(=O)NCc2ccncc2)cc1,> 42 µM (inactive)
6,COc1ccccc1/C=C/C(=O)N1CCc2cc(OC)c(OC)cc2C1C (centres undefined),> 42 µM (inactive)
7,O=C(CSc1nnc2ccccn12)NNC(=O)c1ccc(Cl)cc1,> 42 µM (inactive)
8,CCOc1ccc(Br)cc1CNCCN1CCOCC1,> 42 µM (inactive)
9,CCNC(=O)NC(C(=O)OC)C12CC3CC(CC(C3)C1)C2 (centres undefined),> 42 µM (inactive)
10,Cc1sc(NC(=O)c2ccc(F)cc2)c(CN2CCCCCC2)c1C,> 42 µM (inactive)
11,CCOC(=O)Nc1sc(=S)n(C)c1C,> 42 µM (inactive)
12,COC/C=C/C1=CC2=CC(=O)C(C)(OC(=O)c3cnc4ccccc4n3)C(=O)C2=CN1CCOC (centres undefined),> 42 µM (inactive)
13,Cc1ccc(C(C(=O)Nc2ccc3c(c2)OCO3)N(C)C(=O)/C=C\c2ccc3c(c2)OCO3)cc1 (centres undefined),> 42 µM (inactive)
14,CCCCOc1ccc(C(O)C(CN2CCOCC2)c2ccccc2)cc1 (centres undefined),> 42 µM (inactive)
15,O=c1nc2ccc(Cl)cn2c2ccc(S(=O)(=O)N3CCOCC3)cc12,> 42 µM (inactive)
16,CCC(NC(=O)c1ccccc1NC(=O)c1ccco1)C(=O)NC1CCCCC1 (centres undefined),> 42 µM (inactive)
17,COc1cc2c(=O)n(-c3ccc(C)cc3)c(=O)n(CC(=O)c3ccc4c(c3)OCO4)c2cc1OC,> 42 µM (inactive)
18,O=S(=O)(Cc1ccccc1)N1CCN(c2ccccc2)CC1,> 42 µM (inactive)
19,N#CC(CC(=O)c1ccc(F)cc1)c1ccc2c(c1)OCO2 (centres undefined),> 42 µM (inactive)
20,CN(C)/C(CN1CCCCC1)=C1\N=C(c2ccccc2)OC1=O,> 42 µM (inactive)
21,Cc1cc(C)cc(NC(=O)CS(=O)(=O)c2ccccc2)c1,> 42 µM (inactive)
22,Nc1cc[n+](CC(=O)Nc2ccccc2)cc1,> 42 µM (inactive)
23,CCSc1nc2ccccc2c(=O)n1C1CCOC(C)(C)C1 (centres undefined),> 42 µM (inactive)
24,COCCN1C=C(C(=O)OC)C(c2cc3c(cc2Br)OCO3)C(C(=O)OC)=C1,> 42 µM (inactive)
25,Cc1ccc(N=c2ssnc2Cl)cc1,> 42 µM (inactive)

row,Structure (SMILES),AC50
1,COC(=O)C1=C(C)NC(C)=C([N+](=O)[O-])C1c1ccccc1C(F)(F)F (centres undefined),> 42 µM (inactive)
2,CN(C)c1ccc(/C=C/c2cccc[n+]2[O-])cc1,> 42 µM (inactive)
3,COc1ccc(NC(=O)C2CCCN2S(=O)(=O)c2cccc3cccnc23)cc1OC (centres undefined),> 42 µM (inactive)
4,C=CCN1C(=O)/C(=C2/Sc3ccc(OC)cc3N2C)SC1=Nc1ccccc1,> 42 µM (inactive)
5,c1coc(C2OCC3(CO2)COC(c2ccco2)OC3)c1 (centres undefined),> 42 µM (inactive)
6,COc1ccc(CN(CC(=O)NCc2ccco2)C(=O)CCC(=O)Nc2nccs2)cc1,> 42 µM (inactive)
7,O=C(O)CC(NC(=O)OCc1ccccc1)c1ccc(Br)cc1 (centres undefined),> 42 µM (inactive)
8,C[N+](C)(C)CC(=O)Nc1ccc(Cl)cc1C(=O)c1ccccc1,> 42 µM (inactive)
9,Fc1cccc(NC(=S)N2CCn3cccc3C2c2cccnc2)c1 (centres undefined),> 42 µM (inactive)
10,O=C(c1ccc(OC2CCN(CCc3ccccc3)CC2)cc1)N1CCCC1,> 42 µM (inactive)
11,CCCOC(=O)C1=C(C)NC2=C(C(=O)CCC2)C1c1cccs1 (centres undefined),> 42 µM (inactive)
12,Cc1nnc(C)n1/N=C/c1cc2ccccc2nc1Cl,> 42 µM (inactive)
13,CCN(CC)c1ncnc2ccc(Br)cc12,> 42 µM (inactive)
14,Cc1cccc(NC(=S)NCc2ccco2)c1C,> 42 µM (inactive)
15,CC(=O)Oc1cccc(N2C(=O)c3ccc(C(=O)Nc4c[nH]c(=O)[nH]c4=O)cc3C2=O)c1,> 42 µM (inactive)
16,CCOC(=O)NC1(Nc2ccc(C)cc2)Oc2ccccc2O1,> 42 µM (inactive)
17,CC(=O)Nc1sc2c(c1C(c1ccc(F)cc1)N1CCOCC1)CCCC2 (centres undefined),> 42 µM (inactive)
18,CC(=O)Nc1cccc(NC(=S)Nc2ccc(F)cc2F)c1,> 42 µM (inactive)
19,Cc1ccccc1OCc1nc(-c2ccccc2)no1,> 42 µM (inactive)
20,CCCc1ccc(S(=O)(=O)NCCc2ccncc2)cc1,> 42 µM (inactive)
21,CCCNC(=O)Cn1sc2nc(C)cc(C)c2c1=O,> 42 µM (inactive)
22,COc1ccc(NC(=O)CC(C)C)c(OC)c1,> 42 µM (inactive)
23,CCN1C(=NCc2cccc(Cl)c2)N[C@@H](c2cccc(F)c2)C(C(=O)OC)=C1C,> 42 µM (inactive)
24,O=C(NCc1ccco1)c1ccc(Br)c(S(=O)(=O)N2CCCCC2)c1,> 42 µM (inactive)

# — PubChem BioAssay AID463199 (Broad Institute, 2010)
